Consider ten compounds from patent publication US8791303B2, “Herbicides” (Syngenta Limited, priority 2009, dated 2014).

Format in all cases: in vivo
Series [1] deals with Alopecurus myosuroides (ALOMY). Description: Example A glasshouse herbicide test, pre-emergence, ALOMY. As to conditions: Alopecurus myosuroides, pre-emergence, 312 h, Rate 250 g/ha, sprayed after cultivation for one day, evaluated after 13 days, read-out: Pre-Emergence Activity ALOMY (100=total damage to plant; 0=no damage to plant). Here is the method:
(§1) Seeds of a variety of test species are sown in standard soil in pots. After cultivation for one day (pre-emergence) or after 8 days cultivation (post-emergence) under controlled conditions in a glasshouse (at 24/16° C., day/night; 14 hours light; 65% humidity), the plants are sprayed with an aqueous spray solution derived from the formulation of the technical active ingredient in acetone/water (50:50) solution containing 0.5% Tween 20 (polyoxyethelyene sorbitan monolaurate, CAS RN 9005-64-5).
(§2) The test plants are then grown in a glasshouse under controlled conditions in a glasshouse (at 24/16° C., day/night; 14 hours light; 65% humidity) and watered twice daily. After 13 days for pre and post-emergence, the test is evaluated (100=total damage to plant; 0=no damage to plant).
(§3) Lolium perenne (LOLPE), Alopecurus myosuroides (ALOMY), Echinochloa crus-galli (ECHCG), Avena fatua (AVEFA)

Series [2] deals with Alopecurus myosuroides (ALOMY). Description: Example A glasshouse herbicide test, post-emergence, ALOMY. As to conditions: Alopecurus myosuroides, post-emergence, 312 h, Rate 250 g/ha, sprayed after 8 days cultivation, evaluated after 13 days, read-out: Post-Emergence Activity ALOMY (100=total damage to plant; 0=no damage to plant). As to the method: as §1, §2, §3
Series [3] concerns Avena fatua (AVEFA). Description: Example A glasshouse herbicide test, pre-emergence, AVEFA. As to conditions: Avena fatua, pre-emergence, 312 h, Rate 250 g/ha, sprayed after cultivation for one day, evaluated after 13 days, read-out: Pre-Emergence Activity AVEFA (100=total damage to plant; 0=no damage to plant). Here is the method: as §1, §2, §3
For series [4], the system named is Echinochloa crus-galli (ECHCG). Description: Example A glasshouse herbicide test, post-emergence, ECHCG. The following applies: Echinochloa crus-galli, post-emergence, 312 h, Rate 250 g/ha, sprayed after 8 days cultivation, evaluated after 13 days, read-out: Post-Emergence Activity ECHCG (100=total damage to plant; 0=no damage to plant). Here is the method:
as §1, §2, §3

In series [5] the test system is Winter Wheat variety 'Hereward'. Description: Example B crop damage test, post-emergence, wheat seed treated with safener cloquintocet mexyl. As to conditions: Rate 250 g/ha; post-emergence spray 8 days after sowing; seed treated with cloquintocet mexyl 0.5 g/kg dry seed; evaluated after 13 days. Here is the method: Seeds of the Winter Wheat variety ‘Hereward’ were seed treated with a wettable powder formulation of the cereal herbicide safener, cloquintocet mexyl, at a rate of 0.5 grams per kilogram of dry seed prior to the initiation of glasshouse testing. One seed was sown per 1.5 inch plastic pot into a sandy loam soil at a depth of 1 cm, 8 days prior to application of the test compounds and was watered and grown under controlled conditions in a glasshouse (at 24/16° C., day/night; 14 hours light; 65% humidity). The plants were sprayed post-emergence with an aqueous spray solution derived from the formulation of the technical active ingredient in acetone/water (50:50) solution containing 0.5% Tween 20 (polyoxyethelyene sorbitan monolaurate, CAS RN 9005-64-5).
(§4) The test plants were then grown in a glasshouse under controlled conditions in a glasshouse (at 24/16° C., day/night; 14 hours light; 65% humidity) and watered twice daily. After 13 days for pre and post-emergence, the test was evaluated (100=total damage to plant; 0=no damage to plant).

For series [6], the system named is Avena fatua (AVEFA). Description: Example A glasshouse herbicide test, post-emergence, AVEFA. As to conditions: Avena fatua, post-emergence, 312 h, Rate 250 g/ha, sprayed after 8 days cultivation, evaluated after 13 days, read-out: Post-Emergence Activity AVEFA (100=total damage to plant; 0=no damage to plant). Here is the method: as §1, §2, §3
In series [7] the test system is Echinochloa crus-galli (ECHCG). Description: Example A glasshouse herbicide test, pre-emergence, ECHCG. As to conditions: Echinochloa crus-galli, pre-emergence, 312 h, Rate 250 g/ha, sprayed after cultivation for one day, evaluated after 13 days, read-out: Pre-Emergence Activity ECHCG (100=total damage to plant; 0=no damage to plant). Here is the method: as §1, §2, §3

Series [8] relates to Winter Wheat variety 'Hereward'. Description: Example B crop damage test, post-emergence, unsafened wheat. As to conditions: Rate 250 g/ha; post-emergence spray after 8 days cultivation; no safener; evaluated after 13 days. Here is the method:
Seeds of the Winter Wheat variety ‘Hereward’ were sown in standard soil in pots. After 8 days cultivation under controlled conditions in a glasshouse (at 24/16° C., day/night; 14 hours light; 65% humidity), the plants were sprayed post-emergence with an aqueous spray solution derived from the formulation of the technical active ingredient in acetone/water (50:50) solution containing 0.5% Tween 20 (polyoxyethelyene sorbitan monolaurate, CAS RN 9005-64-5).
as §4

In series [9] the test system is Lolium perenne (LOLPE). Description: Example A glasshouse herbicide test, post-emergence, LOLPE. The following applies: Lolium perenne, post-emergence, 312 h, Rate 250 g/ha, sprayed after 8 days cultivation, evaluated after 13 days, read-out: Post-Emergence Activity LOLPE (100=total damage to plant; 0=no damage to plant). As to the method: as §1, §2, §3
The subject of series [10] is Lolium perenne (LOLPE). Description: Example A glasshouse herbicide test, pre-emergence, LOLPE. The following applies: Lolium perenne, pre-emergence, 312 h, Rate 250 g/ha, sprayed after cultivation for one day, evaluated after 13 days, read-out: Pre-Emergence Activity LOLPE (100=total damage to plant; 0=no damage to plant). As to the method:
as §1, §2, §3

Regarding `Cc1cc(C)c(C2C(=O)C/C(=C\C3CC3)C2=O)c(C)c1` (stereo not drawn) [Compound A27, 4-[1-Cyclopropyl-methylidene]-2-(2,4,6-trimethyl-phenyl)-cyclopentane-1,3-dione], the pest or weed control at 250 g/ha worked out at 90% in series [1]; 60% in series [2]; 70% with Avena fatua (AVEFA) [3]; 100% in series [4]; 70% in the series on Avena fatua (AVEFA) [6]; 100% in series [7]. In addition, the pest or weed control at 250 g/ha in the series on Lolium perenne (LOLPE) [9] and in the series with Lolium perenne (LOLPE) [10] was 100% in each case. Further, the “Winter Wheat (Hereward) + cloquintocet mexyl damage (100=total damage to plant; 0=no damage to plant)” value in series [5] is recorded as 0. Further, in series [8], the “Winter Wheat (Hereward) damage (100=total damage to plant; 0=no damage to plant)” value came out at 40.

For the compound `Cc1cc(C)c(C2C(=O)CC(CC3CCCCC3)C2=O)c(C)c1` (stereo not drawn) [Compound A2], the pest or weed control at 250 g/ha was determined as 70% in series [1]; 70% in series [2]; 70% in the series with Avena fatua (AVEFA) [3]; 90% in [4]; 80% with Avena fatua (AVEFA) [6]; 90% in series [7]. The pest or weed control at 250 g/ha in the series with Lolium perenne (LOLPE) [9] and in the series on Lolium perenne (LOLPE) [10] was 100% throughout. For the same compound, in [5], the “Winter Wheat (Hereward) + cloquintocet mexyl damage (100=total damage to plant; 0=no damage to plant)” value amounted to 10. The “Winter Wheat (Hereward) damage (100=total damage to plant; 0=no damage to plant)” value in series [8] was 70.

In the case of `Cc1cc(C)c(C2C(=O)CC(CC3CC(C)CCC3C)C2=O)c(C)c1` (stereo not drawn) [Compound A6], the pest or weed control at 250 g/ha in [1] turned out to be 50%; in series [2], 80%; with Avena fatua (AVEFA) [3] it was 50%; in [4], 80%; with Avena fatua (AVEFA) [6], 60%; in series [7], 90%. In addition, the results for the pest or weed control at 250 g/ha with Lolium perenne (LOLPE) [9] and with Lolium perenne (LOLPE) [10] were 80% and 100%, respectively. In series [5], the “Winter Wheat (Hereward) + cloquintocet mexyl damage (100=total damage to plant; 0=no damage to plant)” value is recorded as 0. In addition, the “Winter Wheat (Hereward) damage (100=total damage to plant; 0=no damage to plant)” value in series [8] stood at 10.

For `Cc1cc(C)c(C2=C(OC(=O)C(C)(C)C)C(CC3CCC(=O)CC3)CC2=O)c(C)c1` (stereo not drawn) [Compound B3], the pest or weed control at 250 g/ha in [1] came to 70%; in series [2] it was 70%; in the series on Avena fatua (AVEFA) [3] it was 50%; in series [4], 90%; with Avena fatua (AVEFA) [6], 90%; in series [7], 50%. The pest or weed control at 250 g/ha in the series with Lolium perenne (LOLPE) [9] and with Lolium perenne (LOLPE) [10] was 90% throughout. Moreover, the “Winter Wheat (Hereward) + cloquintocet mexyl damage (100=total damage to plant; 0=no damage to plant)” value in [5] is on record as 30. In addition, the “Winter Wheat (Hereward) damage (100=total damage to plant; 0=no damage to plant)” value in [8] was found to be 40.

With `C=C(C)C1CCC(/C=C2\CC(=O)C(c3c(C)cc(C)cc3C)C2=O)CC1` (stereo not drawn) [Compound A5], the pest or weed control at 250 g/ha is 30% in [1]; 30% in series [2]; 0% with Avena fatua (AVEFA) [3]; 30% in series [4]; 20% in the series with Avena fatua (AVEFA) [6]; 80% in [7]. Further, the pest or weed control at 250 g/ha with Lolium perenne (LOLPE) [9] is 30%; in the series with Lolium perenne (LOLPE) [10], 40%. Moreover, the “Winter Wheat (Hereward) + cloquintocet mexyl damage (100=total damage to plant; 0=no damage to plant)” value in [5] came to 0. In [8], the “Winter Wheat (Hereward) damage (100=total damage to plant; 0=no damage to plant)” value came out at 10.

In the case of `Cc1cc(C)c(C2C(=O)CC(CC3CC(C)CCC3C(C)C)C2=O)c(C)c1` (stereo not drawn) [Compound A34], the pest or weed control at 250 g/ha in series [1] was 10%; in series [2], 20%; in the series with Avena fatua (AVEFA) [3], 0%; in [4], 10%; with Avena fatua (AVEFA) [6], 10%; in [7], 60%. Further, the pest or weed control at 250 g/ha in the series on Lolium perenne (LOLPE) [9] was 30%; in the series on Lolium perenne (LOLPE) [10], 0%. In addition, in [5], the “Winter Wheat (Hereward) + cloquintocet mexyl damage (100=total damage to plant; 0=no damage to plant)” value is on record as 10. In series [8], the “Winter Wheat (Hereward) damage (100=total damage to plant; 0=no damage to plant)” value was determined as 20.

`Cc1cc(Br)cc(C)c1C1C(=O)CC(CC2CCCCC2)C1=O` (stereo not drawn) [Compound A11]: the pest or weed control at 250 g/ha worked out at 0% in series [1]; 10% in series [2]; 0% in the series with Avena fatua (AVEFA) [3]; 20% in series [4]; 0% in the series on Avena fatua (AVEFA) [6]; 0% in series [7]. The pest or weed control at 250 g/ha in the series with Lolium perenne (LOLPE) [9] is 50%; in the series on Lolium perenne (LOLPE) [10], 20%. For the same compound, the “Winter Wheat (Hereward) + cloquintocet mexyl damage (100=total damage to plant; 0=no damage to plant)” value in [5] is 0. Further, in series [8], the “Winter Wheat (Hereward) damage (100=total damage to plant; 0=no damage to plant)” value amounted to 0.

In the case of `Cc1cc(C)c(C2C(=O)C/C(=C\C3CCCCC3C)C2=O)c(C)c1` (stereo not drawn) [Compound A26], the pest or weed control at 250 g/ha came to 90% in series [1]; 60% in series [2]; 90% with Avena fatua (AVEFA) [3]; 70% in series [4]; 50% in the series with Avena fatua (AVEFA) [6]; 100% in [7]. In addition, the pest or weed control at 250 g/ha with Lolium perenne (LOLPE) [9] amounted to 90%; with Lolium perenne (LOLPE) [10], 100%. The “Winter Wheat (Hereward) + cloquintocet mexyl damage (100=total damage to plant; 0=no damage to plant)” value in series [5] was 20. For the same compound, in [8], the “Winter Wheat (Hereward) damage (100=total damage to plant; 0=no damage to plant)” value is reported as 40.

As to `Cc1cc(C)c(C2C(=O)CC(CC3CCCC4CCCCC43)C2=O)c(C)c1` (stereo not drawn) [Compound A36], the pest or weed control at 250 g/ha in series [1] was 70%; in [2], 40%; in the series with Avena fatua (AVEFA) [3] it was 50%; in [4] it was 70%; in the series with Avena fatua (AVEFA) [6], 90%; in series [7], 70%. For the same compound, the pest or weed control at 250 g/ha in the series on Lolium perenne (LOLPE) [9] is 70%; in the series with Lolium perenne (LOLPE) [10], 10%. The “Winter Wheat (Hereward) + cloquintocet mexyl damage (100=total damage to plant; 0=no damage to plant)” value in series [5] stood at 0. Also, in [8], the “Winter Wheat (Hereward) damage (100=total damage to plant; 0=no damage to plant)” value is 20.

As for `Cc1cc(C)c(C2=C(OC(=O)C(C)(C)C)C(CC3CCC(=NO)CC3)CC2=O)c(C)c1` (stereo not drawn) [Compound B5], the pest or weed control at 250 g/ha in series [1] was 70%; in the series with Avena fatua (AVEFA) [3], 40%; in series [7] it was 70%; with Lolium perenne (LOLPE) [10] it was 90%. Further, the “Winter Wheat (Hereward) + cloquintocet mexyl damage (100=total damage to plant; 0=no damage to plant)” value in series [5] came to 10. In series [8], the “Winter Wheat (Hereward) damage (100=total damage to plant; 0=no damage to plant)” value is 40.
